Read-outs that look alike come from different tables or passages of the source.
Assays:
[1] = system: primary human keratinocytes; assay type: cell-based; details: primary human keratinocytes (unpublished)
[2] = system: caspase-1; assay: Preliminary cell-signaling data (inflammasome / caspase-1 activation)
[3] = system: influenza virus A/Udorn/1972 (H3N2); assay type: in vivo, mice; details: for survival: adjuvant co-administered intradermally with 1 μg HA A/Victoria/210/2009 subunit vaccine; for signs of disease after challenge / body weight loss after challenge: adjuvant with vaccine; for protective immune responses / protective immunity to influenza: used as adjuvant for intradermal influenza vaccination; for body weight loss after challenge: compared to the other vaccinated groups
[4] = system: A/Victoria/210/2009 subunit influenza vaccine; assay type: in vivo, mice; details: after intradermal vaccination with A/Victoria/210/2009 plus adjuvant
[5] = Observation for adverse effects after adjuvanted skin vaccination; assay type: in vivo; details: low doses used for skin vaccination; four months post-adjuvanted vaccination
Text: This modification may improve antigen presentation resulting in protective immunity. […] See Manoury. Proteases: essential actors in processing antigens and intracellular toll-like receptors. Frontiers in immunology 4, 299, (2013). Fullerene is considered as nanoparticle due to its structure that can recruit cells following skin immunization. The toxicity of fullerenes has been reported in Zhang et al., Endocytic mechanisms and toxicity of a functionalized fullerene in human cells. Toxicology letters 191, 149-157, (2009). […] Vaccine adjuvant and vaccine formulations of fullerene derivatives are reported in CN103495164.

Compound	IL-1 beta and TNF-α production [1]	caspase-1 activation [2]	survival ([3]; 4×LD50 A/Udorn/1972 challenge)	signs of disease after challenge [3]	survival rate ([3]; at three different doses tested (11.9, 119 and 1190 nanomoles) with vaccine, infection with A/Udorn 1972)	protective immune responses / protective immunity to influenza [3]	body weight loss after challenge [3]	Serum IgG2a [4]	survival ([3]; […])	adverse effects [5]	longevity of immune responses ([3]; combined with vaccine, […])
O=C1c2c(O)cccc2Cc2cccc(O)c21 [anthralin, 1,8-dihydroxy-9,10-dihydroanthracen-9-one]	large amounts	not activated	80%	fewer signs of disease	≥ 80%	induces protective immune responses					
O=C(Nc1cc(C(F)(F)F)cc(C(F)(F)F)c1)c1cc(Cl)ccc1O [IMD 0354, N-(3,5-bis-trifluoromethyl-phenyl)-5-chloro-2-hydroxy-benzamide]			100%			improved protective immunity to influenza	minimal body weight loss	increased			
c12c3c4c5c1c1c6c7c2c2c8c3c3c9c4c4c%10c5c5c1c1c6c6c%11c7c2c2c7c8c3c3c8c9c4c4c9c%10c5c5c1c1c6c6c%11c2c2c7c3c3c8c4c4c9c5c1c1c6c2c3c41 [fullerene]						improved protective immune responses			80%	no adverse effects	
CC(C)Cn1cnc2c(N)nc3ccccc3c21 [Imiquimod]				fewer signs of disease			lowest body weight loss				improved

— US10420836B2, “Methods of immunizing a subject and compositions related thereto” (priority 2015, dated 2019)
